Measured values reported in patent US12171229B2, “Heteroaryl-triazole and heteroaryl-tetrazole compounds as pesticides” (BAYER AKTIENGESELLSCHAFT, priority 2018, dated 2024).

Assays:
Assay type in all cases: in vivo
[1] = system: Aedes aegypti strain MONHEIM; test: Aedes aegypti test (AEDSAE surface treatment & contact assay); details: surface concentration 20 mg/m^2, exposure 30 minutes, 24 hours after contact, read-out: efficacy (mortality)
Method: Aedes Aegypti Test (AEDSAE Surface Treatment & Contact Assay)
(§1) Solvent: Aceton+2000 ppm rapeseed oil methyl ester (RME)
(§2) In order to produce a sufficient, active ingredient containing solution it is necessary to solve the test compound in the solvent-mix (acetone at 2 mg/ml/RME 2000 ppm). This solution is pipetted onto a glazed tile and after evaporation of the acetone, adult mosquitoes of the species Aedes aegypti strain MONHEIM are placed onto the dried surface. The exposure time is 30 minutes.
(§3) Mortality in percent (%) is determined 24 hours after contact of the insects to the treated surface. 100% mortality means that all tested insects are dead, whereas 0% means that no insect died.

Spodoptera frugiperda = Spodoptera frugiperda spray test; details: 168 h, after 7 days, larvae on maize leaf sections
Method: Spodoptera frugiperda—Spray Test
(§4) To produce a suitable preparation of active compound, 1 part by weight of active compound is mixed with the stated amount of solvents and is diluted with water, containing an emulsifier concentration of 1000 ppm, to the desired concentration. Further test concentrations are prepared by dilution with emulsifier containing water.
Maize (Zea mays) leaf sections are sprayed with a preparation of the active ingredient of the desired concentration. Once dry, the leaf sections are infested with fall armyworm larvae (Spodoptera frugiperda).
After 7 days mortality in % is determined. 100% means all caterpillars have been killed and 0% means none of the caterpillars have been killed.

Boophilus microplus = Boophilus microplus injection test; details: Rhipicephalus microplus, 168 h; 20 μg/animal injected into the abdomen; adult engorged female ticks; egg deposition after 7 days; read-out: efficacy (infertile eggs)
Method: Boophilus Microplus—Injection Test Solvent: dimethyl sulfoxide To produce a suitable preparation of active compound, 10 mg of active compound are dissolved in 0.5 ml solvent, and the concentrate is diluted with solvent to the desired concentration. Five adult engorged female ticks (Boophilus microplus) are injected with 1 μl compound solution into the abdomen. The ticks are transferred into replica plates and incubated in a climate chamber. After 7 days egg deposition of fertile eggs is monitored. Eggs where fertility is not visible are stored in a climate chamber till hatching after about 42 days. An efficacy of 100% means all eggs are infertile; 0% means all eggs are fertile.

Diabrotica balteata = Diabrotica balteata spray test; details: Diabrotica balteata, in Triticum aestivum, 168 h, after 7 days, larvae on wheat seeds, read-out: efficacy (seedlings grown up); for pest or weed control at 80 µg/disc, 250 g/ha: 80 μg/well (=250 g/ha); for pest or weed control at 160 µg/disc, 500 g/ha: 160 μg/well (=500 g/ha)
Method: Diabrotica balteata—Spray Test [table] To produce a suitable preparation of active compound, 1 part by weight of active compound is mixed with the stated amount of solvent, and the concentrate is diluted with water, containing an emulsifier concentration of 1000 ppm, to the desired concentration. Further test concentrations are prepared by dilution with emulsifier containing water. Soaked wheat seeds (Triticum aestivum) are placed in a multiple well plate filled with agar and some water and are incubated for 1 day to germinate (5 seeds per well). The germinated wheat seeds are sprayed with a test solution containing the desired concentration of the active ingredient. Afterwards each unit is infected with 10-20 larvae of the banded cucumber beetle (Diabrotica balteata). After 7 days efficacy in % is determined. 100% means all the seedlings have grown up like in the untreated, uninfected control; 0% means none of the seedlings have grown.

[2] = system: Culex quinquefasciatus strain P00; test: Culex quinquefasciatus test (CULXFA surface treatment & contact assay); details: surface concentration 4 mg/m^2, exposure 30 minutes, 24 hours after contact, read-out: efficacy (mortality)
Method: Culex Quinquefasciatus Test (CULXFA Surface Treatment & Contact Assay)
as §1
as §2, with “Culex quinquefasciatus” for “Aedes aegypti”, “P00” for “MONHEIM”
as §3

Ctenocephalides felis [3] = test: Ctenocephalides felis oral test; details: 48 h, 100 ppm in cattle blood, after 2 days, adult unfed cat fleas
Method: Ctenocephalides Felis—Oral Test
Solvent: dimethyl sulfoxide
To produce a suitable preparation of active compound, 10 mg of active compound are dissolved in 0.5 ml solvent, and the concentrate is diluted with cattle blood to the desired concentration.
Approximately 20 adult unfed cat fleas (Ctenocephalides felis) are placed in flea chambers. The blood chamber, sealed with parafilm on the bottom, are filled with cattle blood supplied with compound solution and placed on the gauze covered top of the flea chamber, so that the fleas are able to suck the blood. The blood chamber is heated to 37° C. whereas the flea chamber is kept at room temperature.
After 2 days mortality in % is determined. 100% means all the fleas have been killed; 0% means none of the fleas have been killed.

Myzus persicae [4] = test: Myzus persicae oral test; details: 120 h, 4 ppm, after 5 days
Method: Solvent: 100 parts by weight acetone
To produce a suitable preparation of active compound, 1 part by weight of active compound is mixed with the stated amount of solvent, and the concentrate is diluted with water to the desired concentration.
50 μl compound solution is filled in microtiter plates and 150 μl IPL41 insect medium (33%+15% sugar) is added to obtain a total volume of 200 μl per well. Afterwards the plates are sealed with parafilm through which a mixed population of the green peach aphid (Myzus persicae) can suck on the compound preparation.
(§5) After 5 days mortality in % is determined. 100% means all aphids have been killed and 0% means none of the aphids have been killed.

Myzus persicae [5] = test: Myzus persicae spray test; details: foliar, 120 h, after 5 days, Chinese cabbage leaf disks
Method: Myzus persicae—Spray Test
as §4
Chinese cabbage (Brassica pekinensis) leaf disks infected with all instars of the green peach aphid (Myzus persicae), are sprayed with a preparation of the active ingredient of the desired concentration.
as §5

Ctenocephalides felis [6] = test: Ctenocephalides felis in-vitro contact test, adult cat flea; details: 5 μg/cm^2 (=500 g/ha), after 48 hours, adult cat fleas, read-out: efficacy (fleas dead or moribund)
Method: Ctenocephalides Felis—In-Vitro Contact Tests Adult Cat Flea 9 mg compound is solved in 1 ml acetone and diluted with acetone to the desired concentration. 250 μl of the test solution is filled in 25 ml glass test tubes and homogeneously distributed on the inner walls by rotation and tilting on a shaking device (2 h at 30 rpm). With a compound concentration of 900 ppm, an inner surface of 44.7 cm^2 and a homogeneous distribution, a dose of 5 μg/cm^2 is achieved. After the solvent has evaporated, each test tube is filled with 5-10 adult cat fleas (Ctenocephalides felis), closed with a perforated lid and incubated in a lying position at room temperature and relative humidity. After 48 hours efficacy is determined. The fleas are patted on the ground of the tubes and are incubated on a heating plate at 45-50° C. for at most 5 minutes. Immotile or uncoordinated moving fleas, which are not able to escape the heat by climbing upwards, are marked as dead or moribund. […] An efficacy of 100% means all fleas are dead or moribund; 0% means no fleas are dead or moribund.

Nezara viridula = Nezara viridula spray test; details: 96 h, after 4 days, larvae on barley plants
Method: Nezara viridula—Spray Test
as §4, with “solvent,” for “solvents”, “and the concentrate” for “and”
Barley plants (Hordeum vulgare) infested with larvae of the southern green stink bug (Nezara viridula) are sprayed with a test solution containing the desired concentration of the active ingredient.
After 4 days mortality in % is determined. 100% means all the stink bugs have been killed: 0% means none of the stink bugs have been killed.

Row | Compound | mortality at 20 mg/m2 [1] [%] | mortality at 500 g/ha (Spodoptera frugiperda) [%] | pest or weed control at 0.02 mg (Boophilus microplus) [%] | pest or weed control at 80 µg/disc, 250 g/ha (Diabrotica balteata) [%] | pest or weed control at 160 µg/disc, 500 g/ha (Diabrotica balteata) [%] | mortality at 4 mg/m2 [2] [%] | mortality at 100 ppm (Ctenocephalides felis [3]) [%] | mortality at 4 ppm (Myzus persicae [4]) [%] | mortality at 100 g/ha (Myzus persicae [5]) [%] | pest or weed control at 5 µg/cm2 (Ctenocephalides felis [6]) [%] | mortality at 100 g/ha (Spodoptera frugiperda) [%] | mortality at 500 g/ha (Myzus persicae [5]) [%] | mortality at 500 g/ha (Nezara viridula) [%] | mortality at 100 g/ha (Nezara viridula) [%]
1 | C[C@H](NC(=O)c1cc(F)c(F)c(F)c1)c1ncnn1-c1ccc(C#N)cn1 [Example I-020] | 90 to 100 | 100 | 100 | 100 | 100 | 90 to 100 | 100 | – | – | – | – | – | – | –
2 | C[C@H](NC(=O)c1cc(F)c(Cl)c(F)c1)c1ncnn1-c1ccc(C#N)cn1 [Example I-021] | – | 100 | – | – | – | – | 100 | 100 | 100 | – | – | – | – | –
3 | CC[C@H](NC(=O)c1cc(Cl)cc(OC(F)(F)F)c1)c1ncnn1-c1ccc([N+](=O)[O-])cn1 [Example I-071] | – | – | – | – | – | – | – | – | – | 80 | – | – | – | –
4 | C[C@H](NC(=O)c1cc(Cl)cc(C(F)(F)F)c1)c1ncnn1-c1ccc(NC(=O)C2(C#N)CC2)cn1 [Example I-076] | – | 100 | 100 | 100 | 100 | – | 90 | 100 | – | – | 100 | 100 | – | –
5 | C[C@H](NC(=O)c1cc(Cl)cc(C(F)(F)F)c1)c1ncnn1-c1nccs1 [Example I-082, 3-chloro-N-{(1S)-1-[1-(1,3-thiazol-2-yl)-1H-1,2,4-triazol-5-yl]ethyl}-5-(trifluoromethyl)benzamide] | – | 100 | – | 100 | 100 | – | – | – | – | 90 | 100 | – | 100 | –
6 | C[C@H](NC(=O)c1cc(Cl)cc(C(F)(F)F)c1)c1ncnn1-c1ncc(Br)s1 [Example I-083, N-{(1S)-1-[1-(5-bromo-1,3-thiazol-2-yl)-1H-1,2,4-triazol-5-yl]ethyl}-3-chloro-5-(trifluoromethyl)benzamide] | – | 100 | – | 100 | 100 | – | 100 | – | – | 90 | 100 | – | – | –
7 | C[C@H](NC(=O)c1cc(Cl)cc(C(F)(F)F)c1)c1ncnn1-c1ccc(NC(=S)C2CC2)cn1 [Example I-098] | – | 100 | – | 100 | 100 | – | 100 | 100 | 90 | – | 100 | 90 | 90 | –
8 | C[C@H](NC(=O)c1cc(Cl)cc(C(F)(F)F)c1)c1ncnn1-c1ccc(NC(=O)C2(Cl)CC2)cn1 [Example I-104] | – | 100 | – | – | 100 | – | – | 90 | – | – | 100 | 90 | 90 | –
9 | C[C@H](NC(=O)c1cc(Cl)cc(OC(F)(F)F)c1)c1ncnn1-c1ccc(NC(=O)C2CC2)cn1 [Example I-105] | – | 100 | – | 100 | 100 | – | – | 100 | – | – | 100 | 90 | 100 | 100
10 | CC(=O)Nc1ccc(-n2ncnc2[C@H](C)NC(=O)c2cc(Cl)cc(OC(F)(F)F)c2)nc1 [Example I-106] | – | 100 | – | 100 | 100 | – | – | 100 | – | – | 100 | 90 | 100 | –
11 | C[C@H](NC(=O)c1cc(Cl)cc(OC(F)F)c1)c1ncnn1-c1ccc(C#N)cn1 [Example I-107] | – | 100 | – | – | 100 | – | – | 100 | 90 | – | 100 | 90 | 100 | 100
12 | Cc1nc([C@H](C)NC(=O)c2cc(Cl)cc(Cl)c2)n(-c2ccc(C#N)cn2)n1 [Example I-115] | – | 100 | – | – | 100 | – | – | 100 | 90 | – | 100 | 100 | 100 | –
13 | Cc1nc([C@H](C)NC(=O)c2cc(Cl)cc(OC(F)(F)F)c2)n(-c2ccc(C#N)cn2)n1 [Example I-116] | – | 100 | – | – | 100 | – | – | 100 | 100 | – | 100 | 100 | 100 | 90
